Assay results reported in patent US20250288704A1, “CXCR4-LIGANDS FOR DIAGNOSTIC AND THERAPEUTIC USE AND PRECURSORS THEREOF” (priority 2021, published 2025).
Where two headings read alike, the source gives them in different places. Positions of bridges follow the written chain, without caps; N, C: chain ends. Non-standard residues stand in square brackets, D forms with d. Residues, ends and D or L forms follow the SMILES beside them. Groups on a side chain read outwards from the residue. Chains are numbered I, II in the order given. *: point of attachment. X2 = OC[C@H]1O[C@@H](O[C@H]2[C@H](O)[C@@H](O)[C@H](*)O[C@@H]2CO)[C@H](O)[C@@H](O)[C@H]1O; X5 = CC(C)(C)[Si](F)(c1ccc(C[N+](C)(C)CC(=O)*)cc1)C(C)(C)C; DOTA = O=C(O)CN1CCN(CC(=O)O)CCN(CC(=O)*)CCN(CC(=O)O)CC1; 2Nal = N[C@@H](Cc1ccc2ccccc2c1)C(=O)O; dNMeOrn = CN[C@H](CCCN)C(=O)O; d(hCys) = N[C@H](CCS)C(=O)O; 4Amb = NCc1ccc(C(=O)O)cc1; 4Abz = Nc1ccc(C(=O)O)cc1; dDap = NC[C@@H](N)C(=O)O; Ahx = NCCCCCC(=O)O

How the values were obtained:
[1] = Biodistribution in Jurkat tumor-bearing CB-17 SCID mice; format: in vivo; details: female, CB-17 SCID, mouse, in vivo, iv, total radioactivity
Experimental: All animal experiments were conducted in accordance with general animal welfare regulations in Germany and the institutional guidelines for the care and use of animals. To establish tumor xenografts, Jurkat cells (2-3×10^7 cells) were suspended in a mixture of Gibco's RPMI 1640 medium and Matrigel (1/1; v/v) from BD Biosciences (Heidelberg, Germany), and inoculated subcutaneously onto the right shoulder of 6-10 weeks old CB17-SCID mice from either Charles River GmbH (Sulzfeld, Germany) or the in-house mouse breeding facility. Mice were used when tumors had grown to a diameter of 5-8 mm (4-10 weeks after inoculation).
Approximately 0.5-20 MBq (0.02-0.20 nmol) of the ^125I-, ^177Lu-, ^99mTc-, ^18F- or ^68Ga-labeled ligand were injected into the tail vein of Jurkat tumor-bearing CB-17 SCID mice and the animals sacrificed after the respective biodistribution time. Selected organs were removed, weighted and measured in a γ-counter.

[2] = Octanol/PBS partition coefficient (logD7.4); format: physicochemical; details: n-octanol/PBS pH 7.4, radiolabeled compound
Experimental: The tubes were vortexed at maximum speed for 3 min to ensure equilibrium before centrifugation at 15.000×g for 5 min on a Biofuge 15 from Heraeus Holding GmbH (Osterode, Germany). An aliquot of 100 μL of each fraction was measured in the γ-counter and the log D7.4 calculated as follows: […]

[3] = system: CXCR4-expressing Chem_1 cells; experiment: Determination of internalization, dual tracer with 125I-Fc-131; format: cell-based; details: for Cell-bound [%] / Internalized [%]: of total cellular activity
Experimental: CXCR4-expressing Chem_1 cells were grown in DMEM-F12 medium supplemented with 10 vol % FBS, 1 vol % NEA, 1 vol % PenStrep and 1 vol % HEPES (1.00 M). Cells were maintained in a 5% CO2 atmosphere at 37° C.
For in vitro experiments, cells were harvested by removal of the medium and incubation of the cells with trypsine/EDTA (0.05%/0.02%; w/v) for 30 in at 37° C.
Each well (n=3 for every time point) was either treated with 25 μL DMEM-F12 (+5 wt % BSA) or 25 μL of an AMD3100 stock (1 mM in H2O) for blockage of the receptors.
The experiment was stopped by placing the well-plate on ice and removing the supernatant. The cells were washed with 250 μL cold HBSS and the both fractions for each well combined, comprising the amount of unbound radioligand.
The supernatant was removed, the cells washed with cold HBSS and the respective fractions combined to obtain the amount of surface-bound radioligand.
The cells were then incubated with 300 μL NaOH (1.00 M in H2O) for at least 30 at r.t. before the supernatant was removed. The well was washed with another 300 μL NaOH and the fractions combined that contain the amount of internalized radioligand.
The three different fractions were subjected to activity measurement in the γ-counter, measuring the activity of the radionuclide used for the labeling of the peptide under investigation first. […] Data was corrected for non-specific internalization and referred to the specific internalization of the standard ligand

Row | tissue uptake at 1 h ([1]; % iD/g Blood) [%ID/g] | tissue uptake at 1 h ([1]; % iD/g Bone) [%ID/g] | tissue uptake at 1 h ([1]; % iD/g Heart) [%ID/g] | tissue uptake at 1 h ([1]; % iD/g Intestine) [%ID/g] | tissue uptake at 1 h ([1]; % iD/g Kidney) [%ID/g] | tissue uptake at 1 h ([1]; % iD/g Liver) [%ID/g] | tissue uptake at 1 h ([1]; % iD/g Lung) [%ID/g] | tissue uptake at 1 h ([1]; % iD/g Muscle) [%ID/g] | tissue uptake at 1 h ([1]; % iD/g Pancreas) [%ID/g] | tissue uptake at 1 h ([1]; % iD/g Spleen) [%ID/g] | tissue uptake at 1 h ([1]; % iD/g Stomach) [%ID/g] | tissue uptake at 1 h ([1]; % iD/g Tumor) [%ID/g] | SMILES | logD7.4 [2] | also measured
1 | 1.29 | 0.48 | 0.56 | 0.43 | 2.75 | 1.59 | 1.57 | 0.19 | 0.14 | 1.48 | 0.51 | 7.58 | CN1C(=O)[C@@H](Cc2ccc(O)cc2)NC(=O)CNC(=O)[C@H](Cc2ccc3ccccc3c2)NC(=O)[C@H](CCCNC(=N)N)NC(=O)[C@H]1CCCNC(=O)c1ccc(CNC(=O)CN2CCN(CC(=O)O)CCN(CC(=O)O)CCN(CC(=O)O)CC2)cc1 [^68Ga-Pentixafor, cyclo(D-Tyr^1-D-[NMe](DOTA)-Orn^2Arg^3-Nal^4-Gly^5), metal not drawn, reference compound] (cyclo([dY][dNMeOrn]([4Amb-DOTA])R[2Nal]G)) | – | –
2 | – | – | – | – | – | – | – | – | – | – | – | – | C[C@@H](NC(=O)[C@@H](CCCNC(=N)N)NC(=O)[C@@H](Cc1c[nH]cn1)NC(=O)[C@@H](CNC(=O)c1ccc([Si](F)(C(C)(C)C)C(C)(C)C)cc1)NC(=O)CC[C@H](C(=O)O)N1CCN(CC(=O)O)CCN(CC(=O)O)CCN(CC(=O)O)CC1)C(=O)Nc1ccc(C(=O)NCCC[C@@H]2C(=O)N[C@@H](CCCNC(=N)N)C(=O)N[C@@H](Cc3ccc4ccccc4c3)C(=O)NCC(=O)N[C@H](Cc3ccc(O)cc3)C(=O)N2C)cc1 [CXCR4-SiFA-2 [Lu]] | 0.80 ± 0.04 (8) | –
3 | – | – | – | – | – | – | – | – | – | – | – | – | C[C@@H](NC(=O)[C@@H](CCCNC(=N)N)NC(=O)[C@@H](CN)NC(=O)CCCCCNC(=O)[C@@H](CNC(=O)CN1CCN(CC(=O)O)CCN(CC(=O)O)CCN(CC(=O)O)CC1)NC(=O)[C@@H](CCS[C@@H]1O[C@H](CO)[C@@H](O[C@@H]2O[C@H](CO)[C@H](O)[C@H](O)[C@H]2O)[C@H](O)[C@H]1O)NC(=O)C[N+](C)(C)Cc1ccc([Si](F)(C(C)(C)C)C(C)(C)C)cc1)C(=O)Nc1ccc(C(=O)NCCC[C@@H]2C(=O)N[C@@H](CCCNC(=N)N)C(=O)N[C@@H](Cc3ccc4ccccc4c3)C(=O)NCC(=O)N[C@H](Cc3ccc(O)cc3)C(=O)N2C)cc1 [CXCR4-SiFA-7 [Ga]] (I: X5-[d(hCys)](X2)[dDap](DOTA)[Ahx][dDap][dR][dA][4Abz] / II: cyclo([dY][dNMeOrn]R[2Nal]G); amide I:C-II:2) | – | tissue uptake at 1 h ([1]; Blood, 1 h p.i., Jurkat xenograft, CB-17 SCID female mice, read-out: % iD/g Blood): 0.85 %ID/g; tissue uptake at 1 h ([1]; Bone, 1 h p.i., Jurkat xenograft, CB-17 SCID female mice, read-out: % iD/g Bone): 2.89 %ID/g; tissue uptake at 1 h ([1]; Heart, 1 h p.i., Jurkat xenograft, CB-17 SCID female mice, read-out: % iD/g Heart): 1.13 %ID/g; tissue uptake at 1 h ([1]; Intestine, 1 h p.i., Jurkat xenograft, CB-17 SCID female mice, read-out: % iD/g Intestine): 0.81 %ID/g; tissue uptake at 1 h ([1]; Kidney, 1 h p.i., Jurkat xenograft, CB-17 SCID female mice, read-out: % iD/g Kidney): 11.1 %ID/g; tissue uptake at 1 h ([1]; Liver, 1 h p.i., Jurkat xenograft, CB-17 SCID female mice, read-out: % iD/g Liver): 53.5 %ID/g; tissue uptake at 1 h ([1]; Lung, 1 h p.i., Jurkat xenograft, CB-17 SCID female mice, read-out: % iD/g Lung): 2.13 %ID/g; tissue uptake at 1 h ([1]; Muscle, 1 h p.i., Jurkat xenograft, CB-17 SCID female mice, read-out: % iD/g Muscle): 0.26 %ID/g; tissue uptake at 1 h ([1]; Pancreas, 1 h p.i., Jurkat xenograft, CB-17 SCID female mice, read-out: % iD/g Pancreas): 0.51 %ID/g; tissue uptake at 1 h ([1]; Spleen, 1 h p.i., Jurkat xenograft, CB-17 SCID female mice, read-out: % iD/g Spleen): 6.96 %ID/g; tissue uptake at 1 h ([1]; Stomach, 1 h p.i., Jurkat xenograft, CB-17 SCID female mice, read-out: % iD/g Stomach): 0.63 %ID/g; tissue uptake at 1 h ([1]; Tumor, 1 h p.i., Jurkat xenograft, CB-17 SCID female mice, read-out: % iD/g Tumor): 0.67 %ID/g
4 | – | – | – | – | – | – | – | – | – | – | – | – | C[C@@H](NC(=O)[C@@H](CCCNC(=N)N)NC(=O)[C@@H](CN)NC(=O)CN1CCN(CC(=O)O)CCN(CC(=O)O)CCN(CC(=O)O)CC1)C(=O)Nc1ccc(C(=O)NCCC[C@@H]2C(=O)N[C@@H](CCCNC(=N)N)C(=O)N[C@@H](Cc3ccc4ccccc4c3)C(=O)NCC(=O)N[C@H](Cc3ccc(O)cc3)C(=O)N2C)cc1 [CXCR4-DOTA-3 [Ga]] (cyclo([dY][dNMeOrn]([4Abz-dA-dR-dDap-DOTA])R[2Nal]G)) | −3.35 ± 0.08 (5) | –
5 | 1.24 | 0.72 | 0.73 | 0.67 | 18.8 | 11 | 2.16 | 0.22 | 0.39 | 3.19 | 1.06 | 5.98 | C[C@@H](NC(=O)[C@@H](CCCNC(=N)N)NC(=O)[C@@H](CN)NC(=O)CN1CCN(CC(=O)O)CCN(CC(=O)O)CCN(CC(=O)O)CC1)C(=O)NCc1ccc(C(=O)NCCC[C@@H]2C(=O)N[C@@H](CCCNC(=N)N)C(=O)N[C@@H](Cc3ccc4ccccc4c3)C(=O)NCC(=O)N[C@H](Cc3ccc(O)cc3)C(=O)N2C)cc1 [CXCR4-DOTA-1 [Lu]] (cyclo([dY][dNMeOrn]([4Amb-dA-dR-dDap-DOTA])R[2Nal]G)) | – | –
6 | – | – | – | – | – | – | – | – | – | – | – | – | C[C@@H](NC(=O)[C@@H](CCCNC(=N)N)NC(=O)[C@@H](CNC(=O)c1ccc([Si](F)(C(C)(C)C)C(C)(C)C)cc1)NC(=O)CC[C@H](C(=O)O)N1CCN(CC(=O)O)CCN(CC(=O)O)CCN(CC(=O)O)CC1)C(=O)Nc1ccc(C(=O)NCCC[C@@H]2C(=O)N[C@@H](CCCNC(=N)N)C(=O)N[C@@H](Cc3ccc4ccccc4c3)C(=O)NCC(=O)N[C@H](Cc3ccc(O)cc3)C(=O)N2C)cc1 [CXCR4-SiFA-1 [Lu]] | 1.41 ± 0.04 (8) | –

Row | SMILES | tissue uptake at 1 h ([1]; % iD/g Blood) [%ID/g] | tissue uptake at 1 h ([1]; % iD/g Bone) [%ID/g] | tissue uptake at 1 h ([1]; % iD/g Heart) [%ID/g] | tissue uptake at 1 h ([1]; % iD/g Intestine) [%ID/g] | tissue uptake at 1 h ([1]; % iD/g Kidney) [%ID/g] | tissue uptake at 1 h ([1]; % iD/g Liver) [%ID/g] | tissue uptake at 1 h ([1]; % iD/g Lung) [%ID/g] | tissue uptake at 1 h ([1]; % iD/g Muscle) [%ID/g] | tissue uptake at 1 h ([1]; % iD/g Pancreas) [%ID/g] | tissue uptake at 1 h ([1]; % iD/g Spleen) [%ID/g] | tissue uptake at 1 h ([1]; % iD/g Stomach) [%ID/g] | tissue uptake at 1 h ([1]; % iD/g Tumor) [%ID/g] | logD7.4 [2] | also measured
7 | C[C@@H](NC(=O)[C@@H](CCCNC(=N)N)NC(=O)[C@@H](CN)NC(=O)CCCCCNC(=O)[C@@H](CNC(=O)CN1CCN(CC(=O)O)CCN(CC(=O)O)CCN(CC(=O)O)CC1)NC(=O)CCCCC[N+]1=C(/C=C/C=C/C=C2/N(C)c3ccc(S(=O)(=O)O)cc3C2(C)C)C(C)(C)c2cc(S(=O)(=O)[O-])ccc21)C(=O)Nc1ccc(C(=O)NCCC[C@@H]2C(=O)N[C@@H](CCCNC(=N)N)C(=O)N[C@@H](Cc3ccc4ccccc4c3)C(=O)NCC(=O)N[C@H](Cc3ccc(O)cc3)C(=O)N2C)cc1 [[^natLu]CXCR4-OI-3, metal not drawn] | 1.9 | 1.1 | 1.39 | 0.85 | 35 | 36.3 | 4.28 | 0.33 | 0.44 | 5.94 | 1.43 | 2.13 | – | Internalized in relation to 125I-Fc-131 [%] ([3]; 30 min): 442 ± 12.1%; Cell-bound [%] ([3]; 30 min): 5.39 ± 0.41%; Internalized [%] ([3]; 30 min): 16.5 ± 0.19%; Internalized in relation to 125I-Fc-131 [%] ([3]; 90 min): 540 ± 42.7%; Cell-bound [%] ([3]; 90 min): 5.36 ± 0.47%; Internalized [%] ([3]; 90 min): 25.2 ± 1.08%
